Laboratory results as given in ChEMBL document CHEMBL4513161, “CO-ADD screening of MMV (CH) - Pandemic Response Box” (2021).
Values after ≈ are worked out from the molar mass of the structure shown.

Legend:
HEK293 = test: cells; format: functional, Homo sapiens, ATCC CRL1573; conditions: Homo sapiens, ATCC CRL1573, HEK293; ASSAY_TEST Inhibition of Cell Viability; detection method Resazurin; Fluorescence (ex560/em590); MEDIA DMEM with 10% FBS; plate type 384well; TC; CORNING #3712; time 18 hr; read-out: CC50
Pseudomonas aeruginosa [1] = test: Antibacterial activity against Pseudomonas aeruginosa PAO397 [PAO1 d(mexAB-oprM) d(mexCD-oprJ) d(mexEF-oprN) d(mexJKL) d(mexXY) d(opmH)] (CO-ADD:GN_211); MIC in CAMBH media using NBS plates, by OD(600); format: functional; conditions: ASSAY_TEST Inhibition of Bacterial Growth, detection method Absorption (OD600), MEDIA CAMHB, plate type 384well, CORNING #3640, time 18 hr
Staphylococcus aureus = test: microbe, parasite or virus in culture; conditions: ATCC 43300, 18 h, ASSAY_TEST Inhibition of Bacterial Growth, detection method Absorption (OD600), MEDIA CAMHB, plate type 384well, NBS, CORNING #3640
Escherichia coli = test: microbe, parasite or virus in culture; conditions: ATCC 25922, 18 h, ASSAY_TEST Inhibition of Bacterial Growth, detection method Absorption (OD600), MEDIA CAMHB, plate type 384well, NBS, CORNING #3640
Klebsiella pneumoniae = test: microbe, parasite or virus in culture; conditions: ATCC 700603, 18 h, ASSAY_TEST Inhibition of Bacterial Growth, detection method Absorption (OD600), MEDIA CAMHB, plate type 384well, NBS, CORNING #3640
Pseudomonas aeruginosa [2] = test: microbe, parasite or virus in culture; conditions: ATCC 27853, 18 h, ASSAY_TEST Inhibition of Bacterial Growth, detection method Absorption (OD600), MEDIA CAMHB, plate type 384well, NBS, CORNING #3640
Acinetobacter baumannii = test: microbe, parasite or virus in culture; conditions: ATCC 19606, 18 h, ASSAY_TEST Inhibition of Bacterial Growth, detection method Absorption (OD600), MEDIA CAMHB, plate type 384well, NBS, CORNING #3640
Candida albicans = test: microbe, parasite or virus in culture; conditions: ATCC 90028, ASSAY_TEST Inhibition of Fungal Growth, detection method Absorption (OD530), plate type 384well, NBS, CORNING #3640

Compound | MIC (Pseudomonas aeruginosa [1]) [µM] | MIC (Cryptococcus neoformans) [µM] | MIC (Staphylococcus aureus) [µM] | MIC (Escherichia coli) [µM] | MIC (Klebsiella pneumoniae) [µM] | MIC (Pseudomonas aeruginosa [2]) [µM] | MIC (Acinetobacter baumannii) [µM] | MIC (Candida albicans) [µM] | CC50 (HEK293) [µM]
CN(C)[C@@H]1C(=O)C(C(N)=O)=C(O)[C@@]2(O)C(=O)C3=C(O)c4c(O)c(NC(=O)CN5CCCC5)cc(F)c4C[C@H]3C[C@@H]12 | 0.625 (≈ 0.349 µg/mL) | > 20 | 0.312 (≈ 0.175 µg/mL) | 0.313 (≈ 0.175 µg/mL) | 10 (≈ 5.59 µg/mL) | 0.625 (≈ 0.349 µg/mL) | > 20 | > 20 | > 20
O=[N+]([O-])/C(Br)=C/c1ccc(Br)o1 | > 20 | 20 (≈ 5.94 µg/mL) | > 20 | > 20 | > 20 | > 20 | > 20 | 20 (≈ 5.94 µg/mL) | > 20
O=C(CSc1nnc(Br)n1-c1ccc(C2CC2)c2ccccc12)Nc1ccc(C(=O)O)cc1Cl | > 20 | > 20 | > 20 | > 20 | > 20 | > 20 | > 20 | > 20 | > 20
CCN1CCN(Cc2nc3ccc([N+](=O)[O-])cc3c(=O)n2-c2ccccc2F)CC1 | > 20 | > 20 | > 20 | > 20 | > 20 | > 20 | > 20 | > 20 | > 20
COc1ccc(SC(=O)N[C@H](CCC(=O)O)C(=O)O)cc1 | > 20 | > 20 | > 20 | > 20 | > 20 | > 20 | > 20 | > 20 | > 20
O=c1cc(OCc2ccccc2)ccn1Cc1ccccc1 | > 20 | > 20 | > 20 | > 20 | > 20 | > 20 | > 20 | > 20 | > 20
CC(C)(C)c1ccc(C(=O)NC(=O)N2CCCc3ccccc32)cc1 | > 20 | > 20 | > 20 | > 20 | > 20 | > 20 | > 20 | > 20 | > 20
CCOC(=O)N1CCN(c2ccc(Cl)cc2)CC1 | > 20 | > 20 | > 20 | > 20 | > 20 | > 20 | > 20 | > 20 | > 20
NCc1ccc(S(N)(=O)=O)cc1 [MAFENIDE] | > 20 | > 20 | > 20 | > 20 | > 20 | > 20 | > 20 | > 20 | > 20
N#CCN1C(=O)COc2cc(F)c(N3C(=O)c4ccccc4C3=O)cc21 | > 20 | > 20 | > 20 | > 20 | > 20 | > 20 | > 20 | > 20 | > 20
C=C(C)[C@@H]1CC[C@]2(C(=O)O)CC[C@]3(C)[C@H](CC[C@@H]4[C@@]5(C)CC[C@H](O)C(C)(C)[C@@H]5CC[C@]43C)[C@@H]12 [BETULINIC ACID] | > 20 | > 20 | > 20 | > 20 | > 20 | > 20 | > 20 | > 20 | > 20
O=C(N[C@H](Cc1cccc2ccccc12)C(=O)NCCc1c[nH]cn1)C1Cc2ccccc2C1 | > 20 | > 20 | > 20 | > 20 | > 20 | > 20 | > 20 | > 20 | > 20

More lines, main results first:

MIC (Pseudomonas aeruginosa [1]) [µM] | MIC (Cryptococcus neoformans) [µM] | MIC (Staphylococcus aureus) [µM] | MIC (Escherichia coli) [µM] | MIC (Klebsiella pneumoniae) [µM] | MIC (Pseudomonas aeruginosa [2]) [µM] | MIC (Acinetobacter baumannii) [µM] | MIC (Candida albicans) [µM] | Compound | CC50 (HEK293) [µM]
> 20 | > 20 | > 20 | > 20 | > 20 | > 20 | > 20 | > 20 | CNc1nc(=O)[nH]cc1F | > 20
> 20 | > 20 | > 20 | > 20 | > 20 | > 20 | > 20 | > 20 | CCc1ccc(C2CC(C(F)(F)F)n3ncc(C(=O)NCc4ccc(OC)cc4)c3N2)cc1 (configuration not stated) | > 20
> 20 | > 20 | > 20 | > 20 | > 20 | > 20 | > 20 | > 20 | Nc1nc(-c2ccccc2)nc2c1ncn2[C@@H]1O[C@H](COS(=O)(=O)NC(=O)c2ccccc2O)[C@@H](O)[C@H]1O | > 20
> 20 | > 20 | > 20 | > 20 | > 20 | > 20 | > 20 | > 20 | COc1ccc(C[C@@H](C)[C@@H](C)Cc2ccc(OC)c(OC)c2)cc1OC [TERAMEPROCOL] | > 20
> 20 | > 20 | > 20 | > 20 | > 20 | > 20 | > 20 | > 20 | CC(C)(C)c1ccc(C(Cn2cccc(C(F)(F)F)c2=O)NC2Cc3ccccc3C2)cc1 (configuration not stated) | > 20
> 20 | > 20 | > 20 | > 20 | > 20 | > 20 | > 20 | > 20 | CC(C)(C)OC(=O)NCc1ccc(C(=O)N[C@H]2CCOC2=O)cc1 | > 20
> 20 | > 20 | > 20 | > 20 | > 20 | > 20 | > 20 | > 20 | CC(C)Nc1nc2cc(Cl)c(Cl)cc2n1[C@H]1O[C@@H](CO)[C@H](O)[C@@H]1O [MARIBAVIR] | > 20
> 20 | > 20 | > 20 | > 20 | > 20 | > 20 | > 20 | > 20 | NCC(=O)Nc1ccc(-n2nc(C(F)(F)F)cc2-c2ccc3c(ccc4ccccc43)c2)cc1 [AR-12] | 6.68
> 20 | > 20 | > 20 | > 20 | > 20 | > 20 | > 20 | > 20 | CCOCc1nc2c(N)nc3ccccc3c2n1CC(C)(C)O [RESIQUIMOD] | > 20
> 20 | > 20 | > 20 | > 20 | > 20 | > 20 | > 20 | > 20 | Oc1cccc(C(Nc2nccs2)c2ccc3cccnc3c2O)c1 (configuration not stated) | 6.67
> 20 | > 20 | > 20 | > 20 | > 20 | > 20 | > 20 | > 20 | Nc1nc(=O)c(Br)c(-c2ccccc2)[nH]1 [BROPIRIMINE] | > 20
> 20 | > 20 | > 20 | > 20 | > 20 | > 20 | > 20 | > 20 | O=C(Nc1ncc(Cc2cccc3ccccc23)s1)C1CCCCC1 | > 20
> 20 | > 20 | > 20 | > 20 | > 20 | > 20 | > 20 | > 20 | CC(C)(C)NC(=O)[C@@H]1CN(Cc2cnc3occc3c2)CCN1C[C@@H](O)C[C@@H](Cc1ccccc1)C(=O)N[C@H]1c2ccccc2C[C@H]1O | > 20
20 (≈ 10.3 µg/mL) | > 20 | 0.312 (≈ 0.16 µg/mL) | > 20 | > 20 | > 20 | > 20 | > 20 | O=c1cc(NCCCN[C@@H]2CCOc3c(Br)cc(Br)cc32)[nH]c2ccsc12 [CRS-3123] | > 20
> 20 | > 20 | 10 (≈ 3.4 µg/mL) | > 20 | > 20 | > 20 | > 20 | > 20 | O=S(=O)(NCB(O)O)c1cc2c(Cl)ccc(Cl)c2s1 | > 20
> 20 | > 20 | > 20 | > 20 | > 20 | > 20 | > 20 | > 20 | O=C(NCc1ccc(F)cc1)c1c(O)c2ncccc2[nH]c1=O | > 20
